This note sets out measurements from PubChem BioAssay (NCI).

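A five-concentration, 48-hour dose response in 96-well plates underlies each endpoint, interpolated linearly between surrounding concentrations. TGI marks complete inhibition of growth.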

Test in all cases: NCI anticancer screen, dose series, 48 h
Test [1] relates to 786-0 renal.
Test [2] concerns A498 renal.
In test [3] the test system is ACHN renal.
The test system of test [4] is HCC-2998 colon.
Test [5] concerns HOP-92 NSCLC.
Test [6] concerns LOX IMVI melanoma.
Test [7] concerns MOLT-4 leukemia.
Test [8] deals with SF-539 CNS.
The subject of test [9] is SK-MEL-2 melanoma.
For test [10], the system named is SK-MEL-28 melanoma.
Test [11] concerns T-47D breast.
Test [12] deals with MALME-3M melanoma.
The subject of test [13] is SK-OV-3 ovarian.
For test [14], the system named is CAKI-1 renal.

Regarding `CCOP(=O)(OCC)/C(C#N)=C/c1ccc(-c2cc(C(F)(F)F)cc(C(F)(F)F)c2)o1`, the TGI in test [1] was determined as 25.5 µM; in test [2], 24.8 µM; in test [3], 50.2 µM; in test [4], 22.2 µM; in [5] it was 20.7 µM; in test [6] it was 15.9 µM. Moreover, the TGI in [7] was found to be 21.8 µM; in test [8], 35.3 µM; in test [9], 38.8 µM; in test [10], 33 µM; in test [11], 40 µM.

As to `O=Cc1ccc(-c2ccc(-c3ccc(CO)s3)o2)s1`, the TGI in test [1] was more than 48.9 µM; in test [2], 0.353 µM; in test [3], more than 100 µM; in test [4], 18.3 µM; in [5], 61.5 µM; in test [6], 16.2 µM. For the same compound, the TGI was more than 66.8 µM in test [12]; more than 39 µM in [7]; more than 81.6 µM in [8]; 97 µM in [9]; more than 80.1 µM in test [10]; 78.8 µM in test [13]. The same compound showed a TGI in test [11] of 62.3 µM.

As to `CN1CC=C(c2c(N)nc(N)[nH]c2=O)CC1`, the TGI in [1], in test [2], in test [3], in test [14], in [5] and in test [12] was more than 100 µM each time. Further, the TGI in [7], in test [8], in test [9], in test [10], in test [13] and in test [11] was more than 100 µM each time.

For the compound `N/C(=N\S(=O)(=O)c1ccc(-c2ncccc2C(F)(F)F)s1)Nc1ccc(Cl)cc1`, the TGI turned out to be 34.7 µM in test [1]; 30.7 µM in test [2]; 30 µM in test [3]; 30 µM in test [5]; 29.8 µM in test [6]; 30.1 µM in test [12]. The TGI in [7] is 53.7 µM; in [8], more than 100 µM; in test [9], 29.3 µM; in [10] it was 34.4 µM; in [13], 33.7 µM; in test [11] it was 48.3 µM.

Take `O=P1(Cc2ccccc2)N(Cc2ccccc2)[C@@H]2CCCC[C@H]2N1Cc1ccccc1`: the TGI in test [1] amounted to 27.2 µM; in [3] it was 25.5 µM; in [14], 23.7 µM; in test [4], 22 µM; in test [6] it was 26.1 µM; in [12], 32.4 µM. In addition, the TGI in test [7] worked out at 8.44 µM; in test [8], 33.8 µM; in [9], 25.4 µM; in [10], 33.2 µM; in test [13], 28 µM; in test [11] it was 24.3 µM.

On to `O=c1[nH]nc(Cc2ccc(Cl)cc2)n1/N=C/c1cccs1`, for which the TGI in test [1] is more than 100 µM; in test [2] it was more than 100 µM; in [3], more than 100 µM; in [14] it was more than 100 µM; in test [4], more than 100 µM; in [5] it was 64.2 µM. For the same compound, the TGI in [12] is more than 100 µM; in test [7], more than 100 µM; in test [8], more than 100 µM; in test [9], 93.6 µM; in test [10] it was more than 100 µM; in test [13], more than 100 µM. Further, the TGI in [11] was more than 100 µM.

`CCOC(=O)CCC1(CCC(=O)OCC)CCCCCCCCC(CCC(=O)OCC)(CCC(=O)OCC)C(=O)C1=O`: the TGI in [1], in test [2], in test [3], in test [14], in test [4] and in test [5] was more than 100 µM in each case. In addition, the TGI in test [6], in test [12], in test [8], in test [9], in [10] and in test [13] was more than 100 µM each time. For the same compound, the TGI in test [11] is more than 100 µM.

For `O=C1CC(=O)NC(=NN2C(=O)/C(=C/c3ccc(Cl)c(Cl)c3)N=C2c2ccccc2)N1`, the TGI in [1] is more than 100 µM; in test [2] it was 62.9 µM; in test [3], more than 100 µM; in [14], more than 100 µM; in test [4], 39.6 µM; in test [5], 89.8 µM. Besides, the TGI in [12] is more than 100 µM; in test [7], 50.8 µM; in [8], 39.6 µM; in test [9] it was 34.4 µM; in test [10], 78 µM; in [13], more than 100 µM. Moreover, the TGI in test [11] is more than 100 µM.

With `Cc1n[n+](Cc2ccccc2)c2sc(N)nn12`, the TGI in test [1], in test [2], in [3], in test [14], in test [6] and in test [12] was more than 100 µM in each case. Also, the TGI in test [7], in test [8], in [9], in test [10], in test [13] and in test [11] was more than 100 µM each time.

As for `O=c1[nH]c2nc3ccccc3c(=O)n2/c1=C/c1cccs1`, the TGI in test [1], in test [3], in test [14], in [4], in [5] and in test [6] was more than 100 µM throughout. Further, the TGI in test [12], in test [7], in [8], in test [9], in test [10] and in test [13] was more than 100 µM throughout. Besides, in test [11], the TGI was more than 100 µM.

As to `Cc1[nH]n(-c2nc(O)c(-c3ccccc3)c(=O)[nH]2)c(=O)c1CCO`, the TGI in test [1], in test [2], in [3], in test [14], in test [5] and in [12] was more than 100 µM each time. Further, the TGI in [7], in [8], in test [9], in test [10], in test [13] and in [11] was more than 100 µM in each case.
